We go through three molecules from US12145915B1 (priority 2023, dated 2024).

In brackets after ≈: the same amount, converted by molar mass.

In series [1] the test system is Mycobacterium tuberculosis H37Rv (ATCC: 25177). As to the kind of experiment: Resazurin Microplate Assay (REMA), MIC against H37Rv strain. The format is cell-based. Particulars: 192 h, read-out: Anti-tubercular activity against Mycobacterium tuberculosis (μg/mL) H37Rv (MIC).

In turn, `Cc1nc(-c2ccc(OCC(C)C)c(C#N)c2)sc1C(=O)N/N=C/c1ccc([N+](=O)[O-])o1` registered a melting point of 228 to 230 °C.
In turn, `Cc1nc(-c2ccc(OCC(C)C)c(C#N)c2)sc1C(=O)N/N=C/c1ccc(F)c(Oc2ccccc2)c1` [KNV-TZL1, (E)-2-(3-Cyano-4-isobutoxyphenyl)-N-(4-fluoro-3-phenoxybenzylidene)-4-methylthiazole-5-carbohydrazide] displayed a melting point of 138 to 140 °C. Further, the MIC in series [1] worked out at 8 µg/mL (≈ 15.1 µM).
As for `COc1cc(/C=N/NC(=O)c2sc(-c3ccc(OCC(C)C)c(C#N)c3)nc2C)ccc1O` [KNV-TZL2, (E)-2-(3-Cyano-4-isobutoxyphenyl)-N-(4-hydroxy-3-methoxybenzylidene)-4-methylthiazole-5-carbohydrazide], the melting point was in the range of 230 to 232 °C. For the same molecule, the MIC in series [1] was determined as 16 µg/mL (≈ 34.4 µM).
